From EP0383941B1, “ULTRAVIOLET ABSORBING COSMETIC” (priority 1988, dated 1990)
Values after ≈ are worked out from the molar mass of the structure shown.

Assays:
[1] = Measurement of water resistance (hot water treatment of aqueous suspension, extinction coefficient and TG-DTA); format: physicochemical; conditions: for Water resisting stability: 10 % by weight aqueous suspension, 80°C for 2 hours, change of molecular extinction coefficient in λmax; for Change of TG-DTA: before and after hot water treatment (80°C, 2 hours)
Description: Fifty milliliters each of aqueous suspensions containing 10 % by weight of a cyclic imino ester and a comparative sample, respectively was prepared, and allowed to stand in a constant temperature bath of 80°C for 2 hours.
Then, 50 ml of isopropyl alcohol was added thereto, and the water and the solvent were removed using a rotary evaporator, and the residue was taken out.
This residue was measured for molecular extinction coefficient in λmax according to a similar manner to Example 1, and its change was used as a measure of water resistance. [formula] Further, the samples before and after hot water treatment were measured for TG-DTA, and its change was examined.

[2] = Measurement of ultraviolet ray-absorbing ability (spectrophotometer); format: physicochemical; conditions: 1,1,2,2-tetrachloroethane, 5x10⁻⁴ g/100 ml, optical path length 1 cm; for E 1%, 1cm: at λmax
Description: There were measured ultraviolet ray-absorbing ability of the cyclic imino esters used in accordance with the invention and a commercially available known ultraviolet absorber (4-t-butyl-4'-methoxy-dibenzoylmethane).
The measurement was carried out using 1,1,2,2-tetrachloroethane as a solvent and Hitachi 330 type spectrophotometer under the conditions of an ultraviolet absorber concentration of 5x10⁻⁴ g/100 ml and an optical path length of 1 cm.

[3] = Measurement of solubility in water, alcohols and oily cosmetic bases; format: physicochemical; conditions: 15°C
skin [4] = test: Contact photosensitization (Adjuvant-Strip method); format: in vivo, Hartley white guinea pigs; conditions: for Contact photosensitization (result in words): Adjuvant-Strip method
Description: (1) Hartley white guinea pigs weighing 370 to 420 g were used. (2) The fur at the cervical part of guinea pigs was cut by an eletric hair clipper, and the part was further shaved with an electric razor. (3) A section of 2 x 4 cm was set at the cervical part, and 0.1 ml portions of Freund's complete adjuvant w/o emulsified with sterilized distilled water were intradermally injected at the four corners. (4) The skin of the section of 2 x 4 cm was subjected to stripping with cellophane tape to cause light erythema. […] (6) After the application, 6 lamps in total, namely 3 sunlamps (Toshiba FL-40SE30) and 3 black lights (Toshiba FL-40SBLB) were arranged in parallel, 70 minutes irradiation was carried out at a distance of 10 cm from the light sources. Total energy of the irradiation at this time was 12.0 J/cm². (7) The procedures (4), (5) and (6) were repeated 5 times every other day. […] (9) 24 Hours after the epilation, 4 sections each of 1.5 cm x 1.5 cm were set in two rows using the medium line as a symmetry axis. (10) This site was coated with the test substance and irradiated for 70 minutes at a distance of 10 cm from 6 black lights. […] (11) Judgement was made 24 and 48 hours after the irradiation according to the following criterion: [Judgement criterion]

skin [5] = test: Primary irritation to the skin; format: in vivo, white rabbits; conditions: for Formation of erythema or eschar: animals judged +: grade + (Well defined erythema)
Description: This experiment was carried out according to the following method. • 1) Eight white rabbits (weighing 2.0 to 3.0 kg) whose fur on the back was cut are grouped into two groups each consisting of 4 animals. Animals of one group (blank) were fixed as they were in braces and those of the other group were fixed in braces after excoriation at the site to be tested. • 2) Vaseline base containing 25 % by weight of a test substance was applied onto a lint cloth, and the resulting lint cloth was stuck on the surface of skin. • 3) Whole body of the rabbit was wrapped with moisture-proof rubber for dental use to prevent movement of the stuck lint cloth and at the same time evaporation of volatile substance. • 4) Twenty-four hours thereafter the lint cloth was removed and the test site was observed. Second and third observations are made 48 and 72 hours thereafter, respectively. The average of evaluation after 24 and 72 hours was calculated as a final evaluation point. • 5) Evaluation was made by independently judging formation of erythema and eschar, and edema, specifically according to the following criteria.

Microorganisms = test: Mutagenicity test using microorganisms; format: cell-based; conditions: test on mutagenicity using microorganisms
Description: This experiment was carried out based on "About Test on Mutagenicity Using Microorganisms", a notification of the Director of the Standard Bureau, the Ministry of Labor, Japan dated May 18, 1985.

skin [6] = test: Allergic contact dermatitis test (Guinea Pig Maximization Test); parameters: species or system white female guinea pigs; conditions: in vivo
Description: Method: This experiment was carried out as follows based on "Guinea Pig Maximization Test" (Magnusson, B. & Klingman, A. M: Usefulness of guinea pig tests for detection of contact sensitizers, In Advances in Modern Toxicology. Vol 4, pp 551-560 Hemisphere Publishing Co., Washington & London, 1977) 1) The fur on the scapula of white female guinea pigs weighing 300 to 500 g was cut in an area of 4 x 6 cm. 2) Each sample was intradermally injected into a guinea pig at the positions (1), (2) and (3) shown in Figure 1 with • (1) 0.1 ml of Freund's complete adjuvant alone; • (2) 0.1 ml of test substance alone; or • (3) sample w/o emulsified with 0.1 ml of Freund's complete adjuvant 3) The fur at the sites was cut one week after the intradermal injection, and a […] test substance, 10 % sodium lauryl sulfate (vaseline base), was applied thereon. 4) Vaseline containing 25 % by weight of the test substance was spread on a filter paper of 2 x 4 cm and occlusive pasting was conducted for 48 hours. 5) The fur at the side of the body of a guinea pig shown at (4) in Figure 1 was cut in an area of 5 x 5 cm two weeks after the occlusive pasting. 6) The test substance was applied onto a filter paper of 2 x 2 cm, and occlusive pasting was conducted for 24 hours. 7) Measurement was carried out according to the following criterion: […]

[7] = 3 = Erythema in middle to heavy degree, guinea pigs
[8] = Vaseline base containing 25 % by weight, 4 rabbits
[9] = grade +++ (Severe erythema to slight formation of eschar), Vaseline base containing 25 % by weight, 4 rabbits

Structure (SMILES): O=c1oc(-c2ccc3cc(-c4nc5ccccc5c(=O)o4)ccc3c2)nc2ccccc12
- Water resisting stability [1]: 96.7%

Structure (SMILES): O=c1oc(-c2ccc(-c3ccc(-c4nc5ccccc5c(=O)o4)cc3)cc2)nc2ccccc12
- λmax (maximum absorption wavelength) [2]: 348 nm
- λs (absorption intiation wavelength) [2]: 395 nm
- E 1%, 1cm [2]: 1300
- Water resisting stability [1]: 97.6%

Structure (SMILES): COc1ccc(C(=O)CC(=O)c2ccccc2C(=O)O)cc1 [4-methoxy-2'-sodium carboxylate-dibenzoylmethane, reference compound]
- Water resisting stability [1]: 52.0%

Structure (SMILES): COc1ccc(C(=O)CC(=O)c2ccc(C(C)(C)C)cc2)cc1 [4-t-butyl-4'-methoxydibenzoylmethane, 4-t-butyl-4'-methoxy-dibenzoylmethane]
- λmax (maximum absorption wavelength) [2]: 360 nm
- λs (absorption intiation wavelength) [2]: 400 nm
- E 1%, 1cm [2]: 1040
- solubility ([3]; Water): 0.0002 mg/mL (≈ 0.000644 mM)
- solubility ([3]; organic solvent or mixture, Castor oil): 96 mg/mL (≈ 309 mM)
- solubility ([3]; organic solvent or mixture, Ethanol): 16 mg/mL (≈ 51.5 mM)
- solubility ([3]; organic solvent or mixture, Glycerin): 2.5 mg/mL (≈ 8.05 mM)
- solubility ([3]; organic solvent or mixture, Isopropyl myristate): 53 mg/mL (≈ 171 mM)
- solubility ([3]; organic solvent or mixture, Light liquid paraffin): 8.5 mg/mL (≈ 27.4 mM)
- solubility ([3]; organic solvent or mixture, Olive oil): 19 mg/mL (≈ 61.2 mM)
- Water resisting stability [1]: 89.4%
- Change of TG-DTA [1]: genera-tion of subpeak

Structure (SMILES): O=c1oc(-c2ccc(-c3nc4ccccc4c(=O)o3)cc2)nc2ccccc12 [A, 2,2'-p-phenylenebis(3,1-benzoxazin-4-one)]
- Contact photosensitization (result in words) (skin [4]; guinea pigs): not observed at all
- Formation of erythema, judgement 0 (animals) (skin [4]; guinea pig, in vivo): 10/10
- Formation of erythema, judgement 1 (animals) (skin [4]; guinea pig, in vivo): 0/10
- Formation of erythema, judgement 2 (animals) (skin [4]; guinea pig, in vivo): 0/10
- Formation of erythema, judgement 3 (animals) (skin [4]; guinea pig, in vivo): 0/10
- Formation of edema (animals) (skin [5]; rabbit, in vivo): 0/4
- Formation of erythema or eschar: animals judged ++ (skin [5]; rabbit, in vivo): 0/4
- Formation of erythema or eschar: animals judged +++ (skin [5]; rabbit, in vivo): 0/4
- Formation of erythema or eschar: animals judged - (skin [5]; rabbit, in vivo): 4/4
- Formation of erythema or eschar: animals judged ± (skin [5]; rabbit, in vivo): 0/4
- λmax (maximum absorption wavelength) [2]: 350 nm
- λs (absorption intiation wavelength) [2]: 385 nm
- E 1%, 1cm [2]: 1270
- Mutagenicity (Microorganisms): No mutagenicity was observed
- Water resisting stability [1]: 96.9%
- Change of TG-DTA [1]: no change
- Judgement 0 (animals) (skin [6]): 4/4
- Judgement 1 (animals) (skin [6]): 0/4
- Judgement 2 (animals) (skin [6]): 0/4

Structure (SMILES): O=c1oc(-c2ccc(-c3ccc(-c4nc5ccccc5c(=O)o4)cc3)cc2)nc2ccccc12 [B, 2,2'-(4,4'-diphenylene)bis(3,1-benzoxazin-4-one)]
- Formation of erythema, judgement 3 (animals) (skin [4]; [7]): Same as left
- Contact photosensitization (result in words) (skin [4]; guinea pigs): not observed at all
- Formation of edema (animals) (skin [5]; [8]): 0/4
- Formation of erythema or eschar: animals judged + (skin [5]; [8]): Same as left
- Formation of erythema or eschar: animals judged +++ (skin [5]; [9]): Same as left
- Mutagenicity (Microorganisms): No mutagenicity was observed

Structure (SMILES): O=c1oc(-c2ccc3cc(-c4nc5ccccc5c(=O)o4)ccc3c2)nc2ccccc12 [C, 2,2'-(2,6-naphthylene)bis(3,1-benzoxazin-4-one)]
- Formation of erythema, judgement 0 (animals) (skin [4]; 0 = No erythema, 24 and 48 hours after irradiation, 10.2 J/cm², guinea pigs): 9/10
- Formation of erythema, judgement 1 (animals) (skin [4]; 1 = Erythema in very light degree, guinea pigs): 1/10
- Formation of erythema, judgement 3 (animals) (skin [4]; [7]): Same as left
- Contact photosensitization (result in words) (skin [4]; guinea pigs): Very slight contact photosensitization was observed
- Formation of edema (animals) (skin [5]; [8]): 0/4
- Formation of erythema or eschar: animals judged + (skin [5]; [8]): Same as left
- Formation of erythema or eschar: animals judged +++ (skin [5]; [9]): Same as left
- λmax (maximum absorption wavelength) [2]: 354 nm
- λs (absorption intiation wavelength) [2]: 400 nm
- E 1%, 1cm [2]: 1070
- Mutagenicity (Microorganisms): No mutagenicity was observed
